Measurements published in US10174013B2, “Benzimidazole derivatives as kinase inhibitors” (SELVITA S.A., priority 2012, dated 2019).
Like-named read-outs stand apart in the source and are kept apart here.

Assays:
FLT3wt = FLT3wt (Homo sapiens (Human), UniProt P36888); assay: ADP-Glo Kinase Assay, Flt3 wt; type: biochemical; conditions: 1 μM compound; for inhibition at 1 µM: read-out: Flt3wt % INH (1 μM)
Method in brief: (§1)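 ADP-Glo luminescent ADP detection of human kinase activity in 5 mM MOPS pH 7.5, 5 mM MgCl2, 0.4 mM EDTA, 1.5 mM DTT. ATP at each kinase's apparent Km; compounds diluted to 1000 nM in assay buffer. Percent inhibition from normalised luminescence.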

MV4-11 cells = assay: Growth inhibition, MTS assay, MV4-11; type: cell-based, Human; conditions: MTS cell viability, read-out: MV4-11 ED50
KG-1 cells = assay: Growth inhibition, MTS assay, KG-1; type: cell-based, Human; conditions: 72 hours, MTS cell viability
Text: (§2) The following cell lines, were obtained and used in tests as outlined below: • Human myelomonocytic, biphenotypic leukemia MV4-11 cells (harboring a Flt3-ITD mutation); • Human Acute Myeloid Leukemia MOLM16 cells; • Human Acute Myeloid Leukemia MOLM13 cells (harboring a Flt3-ITD mutation); • Human Myeloid Leukemia KG-1 cells; • Human erythroleukemia HEL92 cells; • Human mantle cell lymphoma Jeko-1 cells; • Human hepatocellular carcinoma HepG2 cells; and • Human colon adenocarcinoma SW-480 cells.
(§3) The assays were carried out according to the following protocol, which is described as an example for the MV4-11 cells:
(§4) Ten thousand MV4-11 cells were inoculated into each well of a 96-well microplate (manufactured by Corning Corp.) using Iscove's MDM medium (culture medium) containing 10% fetal calf serum (FCS). The same day, a dimethyl sulfoxide (DMSO) solution of each test compound prepared in a concentration of 10 mmol/L was further diluted with DMSO to the desired concentrations (0.1, 0.5, 1, 2.5, 5 and 10 micromol/L), and the diluted solution was added to each well. The individual wells were further cultured in 5% carbon dioxide at 37° C. for 72 hours. […] Briefly, 10 μl MTS (3-(4,5-Dimethyl-2-thiazolyl)-5-(carboxymethoxyphenyl)-2-(4-sulfophenyl)-2H-tetrazolium was added to each well, and culturing was performed in 5% carbon dioxide at 37° C. for 2 hours. After this incubation and using a microplate spectrophotometer (Synergy 2 multi-mode microplate reader (BioTek)), the absorbance of each well was measured at 490 nm. The value for cells not incubated with a test compound was designated as 100%. By comparing these values with the absorbance difference obtained at the well in which each test compound was added, the cell viability (% viability) after treatment with the test compound was calculated.

Pim-1 = Pim-1 (Homo sapiens (Human), UniProt P11309); assay: ADP-Glo Kinase Assay, Pim-1; type: biochemical; conditions: 1 μM compound; for inhibition at 1 µM: read-out: Pim-1 % INH (1 μM)
Method in brief: as §1

CDK2/E = CDK2/E (Homo sapiens (Human), UniProt P24941); assay: ADP-Glo Kinase Assay, CDK2/E; type: biochemical; conditions: 1 μM compound; for inhibition at 1 µM: read-out: CDK2/E % INH (1 μM)
Method in brief: as §1

MOLM13 cells = assay: Growth inhibition, MTS assay, MOLM13; type: cell-based, Human; conditions: 72 hours, MTS cell viability, read-out: MOLM 13 ED50
Text: as §2, §3, §4

MV4-11 xenograft = MV4-11 xenograft in immunocompromised mice; type: in vivo; conditions: MV4-11 xenograft, oral
Method in brief: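 MV4-11 leukemic cells engrafted in NOD/scid or SCID/beige mice; oral dosing started at tumor volume approx. 50-200 mm^3, daily QD or BID for 2-3 weeks. Efficacy read as tumor growth inhibition (TGI), tolerability as body weight change (ΔBW).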

SW-480 cells = assay: Growth inhibition, MTS assay, SW-480; type: cell-based, Human; conditions: 72 hours, MTS cell viability; read-out: SW-480 ED50
Pim-3 = Pim-3 (Homo sapiens (Human), UniProt Q86V86); assay: ADP-Glo Kinase Assay, Pim-3; type: biochemical; conditions: 1 μM compound; for inhibition at 1 µM: read-out: Pim-3 % INH (1 μM)
Method in brief: as §1

DYRK1 = DYRK1 (Homo sapiens (Human), UniProt Q13627); assay: ADP-Glo Kinase Assay, DYRK1; type: biochemical; conditions: 1 μM compound; for inhibition at 1 µM: read-out: DYRK1A % INH (1 μM)
Method in brief: as §1

HEL92 cells = assay: Growth inhibition, MTS assay, HEL92; type: cell-based, Human; conditions: MTS cell viability, read-out: HEL92 ED50
FLT3-ITD = assay: ADP-Glo Kinase Assay, Flt3 ITD; type: biochemical, Human; conditions: 1 μM compound
Description: Compounds of the present invention were tested for their inhibitory activity against Pim-1, Pim-2, Pim-3, Flt3 wt, Flt3 ITD, CDK2/E and DYRK1. The testing of the compounds was carried out using the ADP-Glo™ Kinase Assay from Promega Corporation (Madison, Wis., USA).
The ADP-Glo™ Kinase Assay is a luminescent ADP detection assay to measure kinase activity by quantifying the amount of ADP produced during a kinase reaction. The kinase assay is performed in kinase assay buffer (5 mM MOPS, pH 7.5, 5 mM MgCl2, 0.4 mM EDTA, 1.5 mM DTT). Test samples initially dissolved in DMSO at 10 mM were diluted with the assay buffer to 1000 nM. A 30 μL volume/well of a mixture of substrates containing ATP (final ATP concentration in each kinase assay was equal to its apparent ATP Km).
The assay was performed in two steps: first, after the kinase reaction, an equal volume of ADP-Glo™ Reagent was added to terminate the kinase reaction and deplete the remaining ATP. Second, the Kinase Detection Reagent was added to simultaneously convert ADP to ATP and allowed the newly synthesized ATP to be measured using a luciferase/luciferin reaction. The luminescent signal generated was proportional to the ADP concentration produced and was correlated with kinase activity. A microplate spectrophotometer (Synergy 2 multi-mode microplate reader [BioTek]) was used for detecting the luminescence. The data was normalized and the percent of inhibition was obtained according to the following equation: […]

HepG2 cells = assay: Growth inhibition, MTS assay, HepG2; type: cell-based, Human; conditions: MTS cell viability, read-out: HepG2 ED50
MOLM16 cells = assay: Growth inhibition, MTS assay, MOLM16; type: cell-based, Human; conditions: MTS cell viability, read-out: MOLM 16 ED50
Jeko-1 cells = assay: Growth inhibition, MTS assay, Jeko-1; type: cell-based, Human; conditions: 72 hours, MTS cell viability, read-out: Jeko-1 ED50
Pim-2 = Pim-2 (Homo sapiens (Human), UniProt Q9P1W9); assay: ADP-Glo Kinase Assay, Pim-2; type: biochemical; conditions: 1 μM compound; for inhibition at 1 µM: read-out: Pim-2 % INH (1 μM)
Method in brief: as §1

CYP3A4 = CYP3A4 (Homo sapiens (Human), UniProt P08684); assay: Cytochrome P450 inhibition, fluorescence, CYP3A4; type: in vitro ADME; conditions: recombinant CYP3A4, fluorescence detection; read-out: CYP inhibition (CYP 3A4 screening, IC50 class)
Description: The assays for cytochrome P450 inhibition facilitate the identification of drug candidates with lower potential for drug-drug interactions (weak enzymes inhibitors). In vitro experiments were conducted to determine whether a drug inhibits a specific CYP enzyme. The experiments comprised the incubation of the drug with probe substrates for the CYP enzymes, wherein the following recombinant cytochrome P450 isoforms were employed: CYP1A2, CYP2C8, CYP2C9, CYP2C19, CYP2D6 and CYP3A4, together with various probe substrates enabling fluorescence detection. The protocol uses a single substrate concentration near the apparent Km and multiple compound concentrations.
The assay was performed in 96-well microtiter plates. The row designations were A through H and the column designations were 1 through 12. […] Each compound (see Table 6 for tested compounds) was added to the wells in column 1 and serially diluted to the wells in column 8. Wells 9 and 10 were control wells which contained no test compound (therefore no inhibition-full signal is detected.) The wells in columns 11 and 12 were blanks, where STOP solution was added prior to the addition of the enzyme/substrate mix to the NADPH regenerating system (the only signal present in these wells is background noise.) The assay was conducted in a final volume of 0.2 ml per well.
The stock solutions of the tested compounds were prepared in DMSO at 10 mM concentration. […] After mixing the compounds with solution containing NADPH-cofactors, the mixed plate was preincubated in a 37° C. incubator for at least 10 minutes; next, the fluorescence of compounds using recommended excitation/emission filters was measured in order to eliminate false results originating from autofluorescence of the compounds. In the following step, the enzyme/substrate mix was added to columns 1 through 10 and the plates were incubated at 37° C. for specific times depending on the CYP tested (incubation times ranged from 30 to 45 minutes). After adding STOP SOLUTION to all wells and respective enzyme/substrate mix to the wells in columns 11 and 12, the plate was scanned with a fluorescent plate scanner. The excitation/emission filters used for the specific assays are described in the GenTest Screening Kit instruction manual.

hERG potassium channel = hERG potassium channel (Homo sapiens (Human), UniProt Q12809); assay: hERG automated patch clamp assay (QPatch HT)
Method in brief: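 Automated whole-cell patch clamp of hERG current in mammalian cells at room temperature. Compounds applied at 0.1, 1, 3, 10 and 30 μM, 3 min per concentration, n≥2 cells each.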

Sequence of FLT3wt (P36888 27-993): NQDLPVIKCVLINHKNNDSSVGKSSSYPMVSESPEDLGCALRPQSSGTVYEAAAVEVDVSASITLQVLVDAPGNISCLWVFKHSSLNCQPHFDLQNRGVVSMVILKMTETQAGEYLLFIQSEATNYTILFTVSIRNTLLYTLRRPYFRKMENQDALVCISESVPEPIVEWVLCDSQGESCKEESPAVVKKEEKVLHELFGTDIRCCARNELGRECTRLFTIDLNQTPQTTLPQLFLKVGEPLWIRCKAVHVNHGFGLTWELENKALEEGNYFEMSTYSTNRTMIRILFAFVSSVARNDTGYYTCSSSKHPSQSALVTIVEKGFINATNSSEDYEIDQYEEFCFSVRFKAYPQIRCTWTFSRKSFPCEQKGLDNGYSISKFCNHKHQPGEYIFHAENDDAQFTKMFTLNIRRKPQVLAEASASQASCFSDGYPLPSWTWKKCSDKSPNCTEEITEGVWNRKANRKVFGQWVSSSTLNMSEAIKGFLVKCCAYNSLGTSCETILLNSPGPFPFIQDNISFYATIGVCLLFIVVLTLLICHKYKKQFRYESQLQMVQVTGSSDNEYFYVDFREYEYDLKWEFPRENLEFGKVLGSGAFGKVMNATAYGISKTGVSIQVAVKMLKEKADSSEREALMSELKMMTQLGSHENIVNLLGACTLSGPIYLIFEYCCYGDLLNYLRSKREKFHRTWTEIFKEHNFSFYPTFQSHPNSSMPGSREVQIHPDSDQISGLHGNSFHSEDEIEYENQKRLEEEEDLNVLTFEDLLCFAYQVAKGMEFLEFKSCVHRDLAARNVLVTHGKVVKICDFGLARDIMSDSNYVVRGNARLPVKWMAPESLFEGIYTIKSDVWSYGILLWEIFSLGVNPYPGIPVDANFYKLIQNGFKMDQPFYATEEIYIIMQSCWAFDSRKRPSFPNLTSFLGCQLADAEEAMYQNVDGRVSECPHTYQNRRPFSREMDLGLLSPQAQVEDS
Sequence of Pim-1 (P11309 whole entry): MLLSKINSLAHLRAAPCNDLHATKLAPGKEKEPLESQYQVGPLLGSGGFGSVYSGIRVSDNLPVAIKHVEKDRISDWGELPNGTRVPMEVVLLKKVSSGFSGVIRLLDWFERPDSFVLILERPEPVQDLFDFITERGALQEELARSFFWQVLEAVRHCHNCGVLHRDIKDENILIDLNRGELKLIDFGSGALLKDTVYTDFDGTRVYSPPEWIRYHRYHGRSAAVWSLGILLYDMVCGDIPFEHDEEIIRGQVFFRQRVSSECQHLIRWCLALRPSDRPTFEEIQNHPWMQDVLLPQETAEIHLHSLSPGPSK
Sequence of Pim-2 (Q9P1W9 whole entry): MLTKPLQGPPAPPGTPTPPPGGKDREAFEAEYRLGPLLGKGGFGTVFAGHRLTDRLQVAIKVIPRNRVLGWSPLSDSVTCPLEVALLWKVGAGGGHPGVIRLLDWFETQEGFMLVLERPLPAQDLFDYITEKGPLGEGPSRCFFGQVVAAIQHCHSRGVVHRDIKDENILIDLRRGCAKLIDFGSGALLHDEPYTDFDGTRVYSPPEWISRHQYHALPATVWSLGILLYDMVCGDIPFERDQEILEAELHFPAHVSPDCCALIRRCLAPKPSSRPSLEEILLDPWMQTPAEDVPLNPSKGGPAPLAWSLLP
Sequence of hERG potassium channel (Q12809 whole entry): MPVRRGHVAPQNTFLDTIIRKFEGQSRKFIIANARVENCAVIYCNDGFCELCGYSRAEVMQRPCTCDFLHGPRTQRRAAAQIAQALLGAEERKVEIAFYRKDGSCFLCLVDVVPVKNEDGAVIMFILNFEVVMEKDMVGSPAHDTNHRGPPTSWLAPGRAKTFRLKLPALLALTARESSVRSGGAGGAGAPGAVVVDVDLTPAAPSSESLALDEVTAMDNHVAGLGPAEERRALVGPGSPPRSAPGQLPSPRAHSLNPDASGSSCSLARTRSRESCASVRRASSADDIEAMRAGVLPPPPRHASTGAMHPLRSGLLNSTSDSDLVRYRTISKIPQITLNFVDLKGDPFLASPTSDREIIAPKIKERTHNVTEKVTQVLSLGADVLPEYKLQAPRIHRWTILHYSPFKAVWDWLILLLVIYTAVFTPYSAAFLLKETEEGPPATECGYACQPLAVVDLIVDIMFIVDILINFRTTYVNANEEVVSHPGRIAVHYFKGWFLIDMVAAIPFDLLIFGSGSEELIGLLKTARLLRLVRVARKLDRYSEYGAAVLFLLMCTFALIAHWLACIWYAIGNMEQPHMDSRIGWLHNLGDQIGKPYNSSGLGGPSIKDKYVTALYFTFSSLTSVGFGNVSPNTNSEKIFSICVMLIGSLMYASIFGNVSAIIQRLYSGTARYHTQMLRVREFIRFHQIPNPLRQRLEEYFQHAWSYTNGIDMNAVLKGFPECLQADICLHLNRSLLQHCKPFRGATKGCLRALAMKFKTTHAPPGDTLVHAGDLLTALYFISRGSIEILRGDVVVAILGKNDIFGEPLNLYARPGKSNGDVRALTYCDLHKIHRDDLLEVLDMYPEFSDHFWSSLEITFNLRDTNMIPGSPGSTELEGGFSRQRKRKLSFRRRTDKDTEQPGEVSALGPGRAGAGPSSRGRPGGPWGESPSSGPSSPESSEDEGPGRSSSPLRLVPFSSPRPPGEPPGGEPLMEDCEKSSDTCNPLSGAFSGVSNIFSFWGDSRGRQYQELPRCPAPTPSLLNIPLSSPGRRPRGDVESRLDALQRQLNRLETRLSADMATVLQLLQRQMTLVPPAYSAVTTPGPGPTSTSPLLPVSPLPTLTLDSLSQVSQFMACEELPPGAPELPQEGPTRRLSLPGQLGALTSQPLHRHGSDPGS
Sequence of CYP3A4 (P08684 whole entry, canonical isoform): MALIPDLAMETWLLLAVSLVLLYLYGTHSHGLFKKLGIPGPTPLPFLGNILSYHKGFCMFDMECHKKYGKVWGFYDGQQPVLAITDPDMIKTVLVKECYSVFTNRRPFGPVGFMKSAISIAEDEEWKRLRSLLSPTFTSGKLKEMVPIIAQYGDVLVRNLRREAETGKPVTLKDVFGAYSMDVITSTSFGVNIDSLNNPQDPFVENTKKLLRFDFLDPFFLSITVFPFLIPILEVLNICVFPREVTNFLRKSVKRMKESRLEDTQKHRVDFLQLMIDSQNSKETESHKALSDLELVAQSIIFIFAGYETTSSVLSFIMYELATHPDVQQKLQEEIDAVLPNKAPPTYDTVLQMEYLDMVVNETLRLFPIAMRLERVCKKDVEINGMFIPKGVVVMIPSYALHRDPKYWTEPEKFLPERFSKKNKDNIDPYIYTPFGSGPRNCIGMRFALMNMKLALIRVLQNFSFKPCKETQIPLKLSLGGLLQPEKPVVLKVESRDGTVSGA

Compound	Flt3ITD % INH (1 μM) (FLT3-ITD) [%]	inhibition at 1 µM (FLT3wt) [%]	IC50 (MV4-11 cells; Homo sapiens, MV4-11, 72 h) [nM]	inhibition at 1 µM (Pim-1) [%]	inhibition at 1 µM (CDK2/E) [%]	IC50 (MOLM13 cells; Homo sapiens, MOLM-13) [nM]	inhibition at 1 µM (Pim-3) [%]	inhibition at 1 µM (DYRK1) [%]	IC50 (HepG2 cells; Homo sapiens, HepG2, 72 h) [nM]	IC50 (MOLM16 cells; Homo sapiens, MOLM16, 72 h) [nM]	inhibition at 1 µM (Pim-2) [%]	KG-1 ED50 (KG-1 cells) [nM]	IC50 (HEL92 cells; Homo sapiens, 72 h) [nM]	IC50 (Jeko-1 cells; Homo sapiens, JeKo-1) [nM]	other results
CCn1c(N2CCC[C@H](N)C2)nc2c(C#N)c(Br)c(Br)cc21 [Example 1DQ]		< 5	900	> 95	< 5	2800	86	38	1400	100	53	500	7600	1600	
CCn1c(N2CC[C@H](N)C2)nc2c(C#N)c(Br)c(Br)cc21 [Example 1DR]	50	18	1000	> 95	28	3900	91	65	1200	100	59	140	6200	1300	
CCn1c(N2CCC(N)CC2)nc2c(C#N)c(Br)c(Br)cc21 [Example 1DS]		8	800	> 95	47	9900		23	600	320	54	200	5800	1400	

The next lines start with results.

Flt3ITD % INH (1 μM) (FLT3-ITD) [%]	inhibition at 1 µM (FLT3wt) [%]	IC50 (MV4-11 cells; Homo sapiens, MV4-11, 72 h) [nM]	inhibition at 1 µM (Pim-1) [%]	inhibition at 1 µM (CDK2/E) [%]	IC50 (MOLM13 cells; Homo sapiens, MOLM-13) [nM]	inhibition at 1 µM (Pim-3) [%]	inhibition at 1 µM (DYRK1) [%]	IC50 (HepG2 cells; Homo sapiens, HepG2, 72 h) [nM]	IC50 (MOLM16 cells; Homo sapiens, MOLM16, 72 h) [nM]	inhibition at 1 µM (Pim-2) [%]	Compound	KG-1 ED50 (KG-1 cells) [nM]	IC50 (HEL92 cells; Homo sapiens, 72 h) [nM]	IC50 (Jeko-1 cells; Homo sapiens, JeKo-1) [nM]	other results
29											CCn1c(N2CCC[C@H](N)C2)nc2c([N+](=O)[O-])c(Br)c(Br)cc21 [Example 1AH]	650			Flt3wt % INH (1 μM) (FLT3wt): 9%; IC50 (MV4-11 cells; 72 hours): 600 nM; Pim-1 % INH (1 μM) (Pim-1): >95%; CDK2/E % INH (1 μM) (CDK2/E): 6%; IC50 (MOLM13 cells): 1800 nM; TGI (tumor growth inhibition) (MV4-11 xenograft; 150 mg/Kg QD): 74%; ΔBW (body weight change) (MV4-11 xenograft; 150 mg/Kg QD): 0.6%; TGI (tumor growth inhibition) (MV4-11 xenograft; doses as in Table 3): more than 70%; IC50 (SW-480 cells): 7000 nM; Pim-3 % INH (1 μM) (Pim-3): >95%; DYRK1A % INH (1 μM) (DYRK1): 39%; IC50 (HEL92 cells; 72 hours): 6000 nM; IC50 (HepG2 cells; 72 hours): 2200 nM; IC50 (MOLM16 cells; 72 hours): 200 nM; IC50 (Jeko-1 cells): 1900 nM; Pim-2 % INH (1 μM) (Pim-2): 55%
	< 5	2300	> 95	7	6400	62	20		1100	18	CC(C)n1c(NC2CCC(N)CC2)nc2c(C#N)c(Br)c(Br)cc21 (stereo not shown) [Example 1DY]	1900		2800	
5	< 5	2800	> 95	< 5		79	16	4700		31	CC(C)n1c(NCCOCCN)nc2c([N+](=O)[O-])c(Br)c(Br)cc21 [Example 22J, N-[2-(2-aminoethoxy)ethyl]-5,6-dibromo-4-nitro-1-(propan-2-yl)-1H-1,3-benzodiazol-2-amine]				IC50 (CYP3A4): 3300 to 10000 nM; IC50 (hERG potassium channel): 11900 nM
